One series relates to AChE. To be noted: read-out: AChE inhibition IC50; cited from earlier work.
For a further series, the system named is PDE5A1. The conditions noted are these: read-out: PDE5A1 inhibition IC50; cited from earlier work.
A further series has as its system PDE. To be noted: read-out: PDE inhibition activity IC50; cited from earlier work.
The test system of series [1] is colon cancer cell line HT29. To be noted: read-out: cytotoxic effect IC50; cited from earlier work.
In another series the test system is glioblastoma U-87 MG. The series can be described thus: MTT cell viability assay, U-87 MG. Format: cell-based, human. To be noted: 72 h, median (95% Confidence Intervals). On the procedure:
(§1) The following human cell lines were used in this study: (i) epidermoid carcinoma A-431 (ATCC® CRL-1555), (ii) lung carcinoma A549 (ATCC® CCL-185), (iii) colorectal carcinoma HCT116 (ATCC® CCL-247), (iv) HCT116p53^−/−, (v) glioblastoma U-87 MG (ATCC® HTB-14), (vi) glioblastoma U-251 MG (ECACC 09063001), (vii) breast adenocarcinoma MCF7 (ATCC® HTB-22), (viii) breast adenocarcinoma MDA-MB-231 (ECACC 92020424), (ix) papillomavirus-related cervical squamous cell carcinoma SKG-IIIa (RRID:CVCL_1704), (x) cervical adenocarcinoma HeLa (ATCC® CCL-2), (xi) bone osteosarcoma U-2 OS (ATCC® HTB-96), (xii) hepatocellular carcinoma HEPG2 (ATCC® HB-8065), (xiii) larynx squamous cell carcinoma BICR 18 (ECACC 06051601), (ix) kidney HEK 293T (ATCC® CRL-11268), (xv) normal lung fibroblasts MRC-5 (ATCC® CCL-171), (xvi) normal fibroblasts BJ (ATCC® CRL-2522). The HCT116p53^−/− cell line was a kind gift from professor Bert Vogelstein (John Hopkin’s University, Baltimore, MD, USA). The remaining cell lines were purchased from ATCC (Manassas, VA, USA) or Sigma-Aldrich by Merck (Darmstadt, Germany).
(§2) Cells were cultured in minimal or Dulbecco’s modified Eagle’s or Ham’s F10 medium supplemented with 10% fetal bovine serum (Gibco by Thermo Fisher Scientific, Waltham, MA, USA) and (for BICR 18) 0.4 μg/mL hydrocortizone (Sigma-Aldrich by Merck, Darmstadt, Germany) under standard culture conditions (37 °C, 5% CO2) in a humidified incubator with an atmospheric oxygen.
(§3) The viability of cells was assayed by measuring the conversion of MTT (3-(4,5-dimethylthiazol-2-yl)-2,5-diphenyltetrazolium bromide) to the formazan (the rate of this reaction is proportional to the number of surviving cells). Cells were seeded in a 96-well plate at a density of 2500–3500 cells per well, 24 h before treatment. […] MTT stock solution (Sigma-Aldrich) was added at the final concentration 0.5 mg/mL. After 4 h of incubation at 37 °C, water-insoluble formazan was dissolved in a lysis buffer containing 20% SDS, 50% DMF, 2.5% hydrochloric acid and 2.5% acetic acid. Optical densities were measured at 570 nm using a scanning multi-well spectrophotometer ([…] Detection Platform; Beckman Coulter, Brea, CA, USA). At least three independent experiments of viability were conducted.

The subject of another series is glioblastoma U-251 MG. The series is described as follows: MTT cell viability assay, U-251 MG. The conditions noted are these: 72 h, median (95% Confidence Intervals). Format: cell-based, human. The procedure: as §1, with “The remaining cell lines were purchased from ATCC (Manassas, VA, USA) or Sigma-Aldrich by Merck (Darmstadt, Germany).” left out
The viability of cells was assayed by measuring the conversion of MTT (3-(4,5-dimethylthiazol-2-yl)-2,5-diphenyltetrazolium bromide) to the formazan (the rate of this reaction is proportional to the number of surviving cells). […] Optical densities were measured at 570 nm using a scanning multi-well spectrophotometer ([…] Detection Platform; Beckman Coulter, Brea, CA, USA). […]
In general terms: Formazan colour is commonly taken as a measure of viable cells.

The subject of the next series is bone osteosarcoma U-2 OS. The series is described as follows: MTT cell viability assay, U-2 OS. To be noted: 72 h, median (95% Confidence Intervals). In kind it is cell-based, human. The procedure:
as §1, §2, §3

For series [2], the system named is cervical squamous cell carcinoma SKG-IIIa. The series can be described thus: MTT cell viability assay, SKG-IIIa. Format: cell-based, human. The conditions noted are these: SKGIIIa, 72 h, median (95% Confidence Intervals). The procedure: as §1, §2, §3
The subject of series [3] is breast adenocarcinoma MDA-MB-231. The series can be described thus: MTT cell viability assay, MDA-MB-231. To be noted: MDA-MB-231, MTT, 72 h, median (95% Confidence Intervals). In kind it is cell-based, human. On the procedure: as §1, §2, §3
The next series has as its system normal fibroblasts BJ. The series can be described thus: MTT cell viability assay, BJ. Format: cell-based, human. To be noted: 72 h, median (95% Confidence Intervals). On the procedure: as §1, §2, §3
A further series deals with lung carcinoma A549. The series can be described thus: MTT cell viability assay, A549. In kind it is cell-based, human. The conditions noted are these: 72 h, median (95% Confidence Intervals). The procedure: as §1, §2, §3
Series [4] deals with larynx squamous cell carcinoma BICR 18. The series is described as follows: MTT cell viability assay, BICR 18. In kind it is cell-based, human. To be noted: BICR 18, MTT, 72 h, median (95% Confidence Intervals). On the procedure:
as §1, §2, §3

The next series has as its system kidney HEK 293T. The series can be described thus: MTT cell viability assay, HEK 293T. In kind it is cell-based, human. To be noted: 72 h, median (95% Confidence Intervals). On the procedure: as §1, §2, §3
In series [5] the test system is hepatocellular carcinoma HEPG2. The series can be described thus: MTT cell viability assay, HEPG2. In kind it is cell-based, human. To be noted: 72 h, median (95% Confidence Intervals). On the procedure: as §1, §2, §3
Series [6] has as its system colorectal carcinoma HCT116. The series is described as follows: MTT cell viability assay, HCT116. The conditions noted are these: median (95% Confidence Intervals). Format: cell-based, human. On the procedure: as §1, §2, §3
The subject of series [7] is colorectal carcinoma HCT116p53^−/−. The series is described as follows: MTT cell viability assay, HCT116p53−/−. In kind it is cell-based, human. The conditions noted are these: 72 h, median (95% Confidence Intervals). On the procedure: as §1, §2, §3
For series [8], the system named is breast adenocarcinoma MCF7. The series can be described thus: MTT cell viability assay, MCF7. In kind it is cell-based, human. The conditions noted are these: 72 h, median (95% Confidence Intervals). The procedure: as §1, §2, §3
Series [9] relates to normal lung fibroblasts MRC-5. The series is described as follows: MTT cell viability assay, MRC-5. In kind it is cell-based, human. The conditions noted are these: MRC-5, MTT, 72 h, median (95% Confidence Intervals). On the procedure: as §1, §2, §3
The subject of series [10] is epidermoid carcinoma A-431. The series is described as follows: MTT cell viability assay, A-431. Format: cell-based, human. To be noted: A-431, MTT, 72 h, median (95% Confidence Intervals). On the procedure: as §1, §2, §3
The test system of series [11] is cervical adenocarcinoma HeLa. The series can be described thus: MTT cell viability assay, HeLa. In kind it is cell-based, human. The conditions noted are these: 72 h, median (95% Confidence Intervals). The procedure:
as §1, §2, §3

Another series concerns PDE5. To be noted: read-out: earlier reported IC50 values for PDE5; cited from earlier work.
Series [12] relates to blood platelet aggregation. The series is described as follows: platelet aggregation in platelet-rich plasma (light transmittance aggregometry, collagen + DEA-NO). In kind it is cell-based. The conditions noted are these: Homo sapiens, 10 μM compound, 500 nM DEA-NO, 2 μg/mL collagen, vs DMSO + DEA-NO. The source says:
Nitric oxide is one of the main physiological antiplatelet molecules secreted by vascular endothelium. It stimulates intraplatelet production of cGMP. This secondary messenger is then decomposed in platelets by the activity of two out of three PDE isoforms which are detected in platelets, namely by PDE2 and PDE5, while the other isoform (PDE3) is mostly involved in cAMP hydrolysis. Inhibitors of these phosphodiesterases increase intraplatelet concentration of cGMP and thus potentiate the antiplatelet effect of NO [52]. […]
Multiplate test cells for turbidimetric aggregometry and collagen were purchased from Chronolog Co (Havertown, PA, USA). […] DEA-NO was added to the final concentration of 500 nM, and shortly after, collagen was added to each sample to a final concentration of 2 μg/mL to induce platelet aggregation, which was thereafter monitored for 10 min using an optical aggregometer Chrono-Log 490-2D (Chrono-Log, Havertown, PA, USA). The total area under the aggregation curve (AUC) and the maximal value of platelet aggregation (Amax,U) was recorded. […]
Shortly prior to measurement, 500 nM DEA-NO was added, followed by 2 μg/mL collagen. Percentage of inhibition of platelet response was calculated in comparison to a sample treated with DMSO and DEA-NO on the basis of maximal value of platelet aggregation. […]

The source of these data is publication PMC7913621 (Molecules, 2021).

As usually defined, the IC50 is the concentration at which inhibition is half-maximal. On to `O=C1C2Cc3c([nH]c4ccccc34)C(c3ccc4c(c3)OCO4)N2C(=O)CN1CCC1CCN(Cc2ccccc2)CC1` (centres unmarked) [Compound 5], for which the IC50 in the series on AChE is 0.032 µM; with PDE5A1, 1.53 µM.

In the case of `CCN1CC(=O)N2C(Cc3c([nH]c4ccccc34)C2c2ccccc2Br)C1=O` (centres unmarked) [Compound 3], the IC50 was 0.06 µM in the series with PDE and 25.5 µM in series [1].

For `N.N.[Cl][Pt][Cl]` [Cisplatin, cisplatin, reference compound], the IC50 with glioblastoma U-87 MG was 4.96 µM; in the series on glioblastoma U-251 MG, 2.61 µM; in the series with bone osteosarcoma U-2 OS, 7.55 µM; in [2], 4.84 µM; in [3] it was 22.3 µM; in the series with normal fibroblasts BJ it was 5.58 µM. Further, the IC50 in the series on lung carcinoma A549 stood at 27.2 µM; in [4], 1.69 µM; with kidney HEK 293T, 6.25 µM; in [5], 7.8 µM; in [6] (72 h) it was 7.44 µM; in series [7], 14.1 µM. The IC50 in series [8] was 11 µM; in series [9], 3.92 µM; in series [10], 1.51 µM; in series [11], 13.5 µM.

The term inhibition denotes the share of the control response that was lost under treatment. For the compound `CN1CC(=O)N2[C@H](c3ccc4c(c3)OCO4)c3[nH]c4ccccc4c3C[C@@H]2C1=O` [Tadalafil, reference compound], the IC50 with glioblastoma U-87 MG (Homo sapiens) turned out to be 40.7 µM; in the series with glioblastoma U-251 MG (Homo sapiens), 44.1 µM; in the series with bone osteosarcoma U-2 OS (Homo sapiens, U2OS) it was 35.1 µM; in [2] (Homo sapiens), 35.1 µM; in series [3] (Homo sapiens) it was 87.6 µM; with normal fibroblasts BJ (Homo sapiens, Fibroblast), 40.5 µM. For the same compound, the IC50 was found to be 51.5 µM in the series on lung carcinoma A549 (Homo sapiens); 52.5 µM in series [4] (Homo sapiens); 31 µM with kidney HEK 293T (Homo sapiens); 46.6 µM in [5] (Homo sapiens); 27.2 µM in series [6] (Homo sapiens, HCT-116, 72 h); 19.8 µM in [7] (Homo sapiens). Also, the IC50 in series [8] (Homo sapiens) was 55.3 µM; in [9] (Homo sapiens, MRC5) it was 28.7 µM; in the series with PDE5, […]; in series [10] (Homo sapiens), 20.4 µM; in series [11] (Homo sapiens), 42.3 µM. The inhibition at 10 µM in [12] is around 50%.
